Assay: Single-dose, dose escalation study Part 1: pharmacokinetics of plasma/urine cromolyn sodium (DSCG)
Assay type: in vivo
Details: human, plasma, inhaled, 40 mg

AUC (40 mg dose using the 30L device (text repeat of Table 2, PA-101)): 338 ng·h/mL
AUC (40 mg dose using the 40L device (text repeat of Table 2, PA-101)): 212 ng·h/mL
Compound: O=C(O)c1cc(=O)c2c(OCC(O)COc3cccc4oc(C(=O)O)cc(=O)c34)cccc2o1 [cromolyn sodium]

From patent US9265749B2, “Methods for the treatment of systemic disorders treatable with mast cell stabilizers, including mast cell related disorders” (Patara Pharma, LLC, priority 2014, dated 2016)
